Laboratory results taken from the NIST ThermoML archive (doi:10.1021/je900661c).
Where “and” joins values, the source holds several entries; their conditions need not be identical. Equal entries are not always repeated. ± gives the expanded uncertainty stated by the source.

Test: molar heat capacity at constant pressure
Details: 5000 kPa, Liquid, thermal relaxation

Structure (SMILES) | molar heat capacity at constant pressure (310 K) [J/K/mol] | molar heat capacity at constant pressure (315 K) [J/K/mol] | molar heat capacity at constant pressure (320 K) [J/K/mol] | molar heat capacity at constant pressure (325 K) [J/K/mol] | molar heat capacity at constant pressure (330 K) | molar heat capacity at constant pressure (335 K) [J/K/mol] | molar heat capacity at constant pressure (340 K) | molar heat capacity at constant pressure (345 K) | molar heat capacity at constant pressure (350 K) [J/K/mol]
FC(F)C(F)(F)F [pentafluoroethane] | 154.83 ± 8.4 | 159.63 ± 8.4 | 163.23 ± 8.4 | 171.63 ± 8.4 | 182.43 ± 9.6 J/K/mol and 183.63 ± 9.6 J/K/mol | 193.23 ± 9.6 | 217.24 ± 11 J/K/mol and 212.44 ± 11 J/K/mol | 242.44 ± 13 J/K/mol | 282.05 ± 14
CC(F)(F)F [1,1,1-trifluoroethane] | 136.15 ± 6.7 | 140.35 ± 7.6 | 145.39 ± 7.6 | 150.43 ± 7.6 | 155.47 ± 8.4 J/K/mol | 162.2 ± 8.4 | 173.96 ± 9.2 J/K/mol | 189.93 ± 10 J/K/mol and 192.45 ± 10 J/K/mol | 224.39 ± 12
FCF [difluoromethane] | 106.65 ± 5.7 | 109.77 ± 5.7 | 113.41 ± 5.7 | 119.65 ± 6.2 | 125.9 ± 6.8 J/K/mol | 138.9 ± 7.3 | 164.39 ± 8.3 J/K/mol | – | –
